Test results published in patent US20150105252A1, “SUBSTITUTED PYRAZOLES AS HERBICIDES” (E I DU PONT DE NEMOURS AND COMPANY, priority 2013, published 2015).

Assays:
pigweed [1] = assay: Test A postemergence; assay type: in vivo, Amaranthus retroflexus
Text: (§1) Seeds of plant species selected from barnyardgrass (Echinochloa crus-galli), kochia (Kochia scoparia), common ragweed (Ambrosia elation), Italian ryegrass (Lolium multiflorum), crabgrass, large (large crabgrass, Digitaria sanguinalis), foxtail, giant (giant foxtail, Setaria faberii), morningglory (Ipomoea spp.), pigweed (redroot pigweed, Amaranthus retroflexus), velvetleaf (Abutilon theophrasti), wheat (Triticum aestivum), and corn (Zea mays) were planted into a blend of loam soil and sand and treated preemergence with a directed soil spray using test chemicals formulated in a non-phytotoxic solvent mixture which included a surfactant.
(§2) At the same time, plants selected from these crop and weed species and also blackgrass (Alopecurus myosuroides), and galium (catchweed bedstraw, Galium aparine) were planted in pots containing the same blend of loam soil and sand and treated with postemergence applications of test chemicals formulated in the same manner. Plants ranged in height from 2 to 10 cm and were in the one- to two-leaf stage for the postemergence treatment. Treated plants and untreated controls were maintained in a greenhouse for approximately 10 days, after which time all treated plants were compared to untreated controls and visually evaluated for injury. Plant response ratings, summarized in Table A, are based on a 0 to 100 scale where 0 is no effect and 100 is complete control. A dash (-) response means no test result.

wheat [2] = assay: Test A postemergence; assay type: in vivo, Triticum aestivum
Text: as §1, §2

morningglory [3] = assay: Test A preemergence; assay type: in vivo, Ipomoea spp.; conditions: 0 to 100 scale
Text: as §1, §2

crabgrass, large [4] = assay: Test A postemergence; assay type: in vivo, Digitaria sanguinalis
Text: as §1, §2

barnyardgrass [5] = assay: Test A postemergence; assay type: in vivo, Echinochloa crus-galli; conditions: Postemergence
Text: as §1, §2

morningglory [6] = assay: Test A postemergence; assay type: in vivo, Ipomoea spp.
Text: as §1, §2

pigweed [7] = assay: Test A preemergence; assay type: in vivo, Amaranthus retroflexus; conditions: 0 to 100 scale
Text: as §1, §2

wheat [8] = assay: Test A preemergence; assay type: in vivo, Triticum aestivum; conditions: 0 to 100 scale
Text: as §1, §2

velvetleaf [9] = assay: Test A postemergence; assay type: in vivo, Abutilon theophrasti
Text: as §1, §2

velvetleaf [10] = assay: Test A preemergence; assay type: in vivo, Abutilon theophrasti; conditions: 0 to 100 scale
Text: as §1, §2

barnyardgrass [11] = assay: Test A preemergence; assay type: in vivo, Echinochloa crus-galli; conditions: 0 to 100 scale
Text: as §1, §2

crabgrass, large [12] = assay: Test A preemergence; assay type: in vivo, Digitaria sanguinalis; conditions: 0 to 100 scale
Text: as §1, §2

foxtail, giant [13] = assay: Test A preemergence; assay type: in vivo, Setaria faberii; conditions: 0 to 100 scale
Text: as §1, §2

corn [14] = assay: Test A preemergence; assay type: in vivo, Zea mays; conditions: 0 to 100 scale
Text: as §1, §2

foxtail, giant [15] = assay: Test A postemergence; assay type: in vivo, Setaria faberii
Text: as §1, §2

corn [16] = assay: Test A postemergence; assay type: in vivo, Zea mays
Text: as §1, §2

[17] = Postemergence, 500 g ai/ha, visual rating after approx. 10 days, 0 to 100 scale (0 no effect, 100 complete control)
[18] = postemergence, 125 g ai/ha, about 10 days, visual rating on 0 to 100 scale (0 no effect, 100 complete control)
[19] = Preemergence, 500 g ai/ha, 0 no effect, 100 complete control
[20] = preemergence, 125 g ai/ha, visual injury, approx. 10 days
[21] = 125 g ai/ha, 0 to 100 scale, 0 no effect, 100 complete control
[22] = 500 g ai/ha, visual rating after approx. 10 days, 0 to 100 scale (0 no effect, 100 complete control)
[23] = Postemergence, 1000 g ai/ha, visual rating after approx. 10 days, 0 to 100 scale (0 no effect, 100 complete control)
[24] = Preemergence, 1000 g ai/ha, 0 no effect, 100 complete control
[25] = Postemergence, 125 g ai/ha, 0 to 100 scale, 0 no effect, 100 complete control

SMILES	Pigweed plant response rating (pigweed [1]; [17])	Pigweed plant response rating (pigweed [1]; [18])	Wheat plant response rating (wheat [2]; [17])	Wheat plant response rating (wheat [2]; [18])	Morningglory plant response rating (morningglory [3]; [19])	Morningglory plant response rating (morningglory [3]; [20])	Crabgrass, Large plant response rating (crabgrass, large [4]; [17])	Crabgrass, Large plant response rating (crabgrass, large [4]; [18])	Barnyardgrass plant response rating (barnyardgrass [5]; [21])	Barnyardgrass plant response rating (barnyardgrass [5]; [22])	Morningglory plant response rating (morningglory [6]; [17])	Morningglory plant response rating (morningglory [6]; [18])	Pigweed plant response rating (pigweed [7]; [19])	Wheat plant response rating (wheat [8]; [20])	Velvetleaf plant response rating (velvetleaf [9]; [17])	Velvetleaf plant response rating (velvetleaf [10]; [19])	Barnyardgrass plant response rating (barnyardgrass [11]; [19])	Barnyardgrass plant response rating (barnyardgrass [11]; [20])	Foxtail, Giant plant response rating (foxtail, giant [13]; [19])	Corn plant response rating (corn [14]; [20])	also measured
Cc1cc(C(=O)NCC(F)(F)C(F)(F)F)nn1Cc1cccc(C(F)(F)F)c1 [Compound 8]	40	10	0	0	0	0	20	10	0	10	100	80	10	0	10	0	0	0	0	0	Pigweed plant response rating (pigweed [7]; [20]): 0; Velvetleaf plant response rating (velvetleaf [10]; [20]): 0; Crabgrass, Large plant response rating (crabgrass, large [12]; [19]): 0; Crabgrass, Large plant response rating (crabgrass, large [12]; [20]): 0; Foxtail, Giant plant response rating (foxtail, giant [13]; [20]): 0; Corn plant response rating (corn [14]; [19]): 0; Foxtail, Giant plant response rating (foxtail, giant [15]; [17]): 20; Foxtail, Giant plant response rating (foxtail, giant [15]; [18]): 10; Corn plant response rating (corn [16]; [17]): 0; Corn plant response rating (corn [16]; [18]): 0
Cc1cc(C(=O)NC2CC2)nn1Cc1ccc(F)c(C(F)(F)F)c1 [Compound 11]	100	60	0	0	30	10	40	20	0	10	80	70	100	0	40	20	50	10	60	0	Pigweed plant response rating (pigweed [7]; [20]): 60; Velvetleaf plant response rating (velvetleaf [9]; [18]): 30; Velvetleaf plant response rating (velvetleaf [10]; [20]): 0; Crabgrass, Large plant response rating (crabgrass, large [12]; [19]): 90; Crabgrass, Large plant response rating (crabgrass, large [12]; [20]): 60; Foxtail, Giant plant response rating (foxtail, giant [13]; [20]): 20; Corn plant response rating (corn [14]; [19]): 0; Foxtail, Giant plant response rating (foxtail, giant [15]; [17]): 30; Foxtail, Giant plant response rating (foxtail, giant [15]; [18]): 10; Corn plant response rating (corn [16]; [17]): 20; Corn plant response rating (corn [16]; [18]): 0
Cc1cc(C(=O)NCC(F)(F)F)nn1Cc1ccc(F)c(C(F)(F)F)c1 [Compound 12]	100	80	0	0	10	0	50	30	10	20	90	50	100	0	50	0	30	0	60	0	Pigweed plant response rating (pigweed [7]; [20]): 70; Velvetleaf plant response rating (velvetleaf [9]; [18]): 40; Velvetleaf plant response rating (velvetleaf [10]; [20]): 0; Crabgrass, Large plant response rating (crabgrass, large [12]; [19]): 60; Crabgrass, Large plant response rating (crabgrass, large [12]; [20]): 40; Foxtail, Giant plant response rating (foxtail, giant [13]; [20]): 10; Corn plant response rating (corn [14]; [19]): 0; Foxtail, Giant plant response rating (foxtail, giant [15]; [17]): 30; Foxtail, Giant plant response rating (foxtail, giant [15]; [18]): 20; Corn plant response rating (corn [16]; [17]): 20; Corn plant response rating (corn [16]; [18]): 10
Cc1cc(C(=O)NC2CC2)nn1Cc1cc(F)cc(C(F)(F)F)c1 [Compound 14]	70	50	0	0	20	0	40	20	0	10	80	50	100	0	30	0	10	0	90	0	Pigweed plant response rating (pigweed [7]; [20]): 100; Velvetleaf plant response rating (velvetleaf [9]; [18]): 20; Velvetleaf plant response rating (velvetleaf [10]; [20]): 0; Crabgrass, Large plant response rating (crabgrass, large [12]; [19]): 90; Crabgrass, Large plant response rating (crabgrass, large [12]; [20]): 10; Foxtail, Giant plant response rating (foxtail, giant [13]; [20]): 10; Corn plant response rating (corn [14]; [19]): 0; Foxtail, Giant plant response rating (foxtail, giant [15]; [17]): 20; Foxtail, Giant plant response rating (foxtail, giant [15]; [18]): 0; Corn plant response rating (corn [16]; [17]): 10; Corn plant response rating (corn [16]; [18]): 0
Cc1cc(C(=O)NC2CC2)nn1Cc1cccc(OC(F)(F)F)c1 [Compound 21]	100	90	10	0	40	0	80	30	0	60	90	80	100	0	40	50	90	0	100	0	Velvetleaf plant response rating (velvetleaf [9]; [18]): 0; Foxtail, Giant plant response rating (foxtail, giant [15]; [17]): 50; Foxtail, Giant plant response rating (foxtail, giant [15]; [18]): 20; Corn plant response rating (corn [16]; [17]): 50; Corn plant response rating (corn [16]; [18]): 10
CCc1cc(C(=O)NCCC(F)(F)F)nn1Cc1cccc(C(F)(F)F)c1 [Compound 51]																					Pigweed plant response rating (pigweed [1]; [23]): 50; Wheat plant response rating (wheat [2]; [23]): 20; Morningglory plant response rating (morningglory [3]; [24]): 10; Crabgrass, Large plant response rating (crabgrass, large [4]; [23]): 30; Barnyardgrass plant response rating (barnyardgrass [5]; 1000 g ai/ha, visual rating after approx. 10 days, 0 to 100 scale (0 no effect, 100 complete control)): 10; Morningglory plant response rating (morningglory [6]; [23]): 100; Pigweed plant response rating (pigweed [7]; [24]): 10; Wheat plant response rating (wheat [8]; [24]): 0; Velvetleaf plant response rating (velvetleaf [9]; [23]): 100; Velvetleaf plant response rating (velvetleaf [10]; [24]): 0; Barnyardgrass plant response rating (barnyardgrass [11]; [24]): 10; Crabgrass, Large plant response rating (crabgrass, large [12]; [24]): 20; Foxtail, Giant plant response rating (foxtail, giant [13]; [24]): 80; Foxtail, Giant plant response rating (foxtail, giant [15]; [23]): 10; Corn plant response rating (corn [16]; [23]): 10
O=C(NCC(F)(F)F)c1cc(CCCl)n(Cc2ccnc(C(F)(F)F)c2)n1 [Compound 193]																					Pigweed plant response rating (pigweed [1]; [25]): 100; Wheat plant response rating (wheat [2]; [25]): 0; Morningglory plant response rating (morningglory [6]; [25]): 80; Velvetleaf plant response rating (velvetleaf [9]; [25]): 70
